Columns and labels:
[1] = molecular target: human CARM1 (PRMT4) (Homo sapiens (Human), UniProt Q86X55); experiment: CARM1 enzyme assay on peptide substrate (3H-SAM Flashplate); conditions: Biochemical potencies, read-out: Biochem IC50
[2] = system: asymmetric di-methyl PABP1 in RKO cells; experiment: RKO methylation assay, In Cell Western (ICW) for asymmetric di-methyl PABP1; format: cell-based; conditions: Homo sapiens, RKO, Cellular potencies, ICW PABP1me2a
How it was run: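 In-cell Western on fixed RKO cells after 48 h compound exposure: anti-asymmetric di-methyl PABP1 signal at 800 nm over DRAQ5 DNA signal at 700 nm. Percent inhibition set between DMSO wells and wells with 20 μM reference compound; IC50 curves fitted in triplicate.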

human CARM1 (PRMT4), sequence (Q86X55 other isoform, or with tags, fused parts or gaps isoform Q86X55-1): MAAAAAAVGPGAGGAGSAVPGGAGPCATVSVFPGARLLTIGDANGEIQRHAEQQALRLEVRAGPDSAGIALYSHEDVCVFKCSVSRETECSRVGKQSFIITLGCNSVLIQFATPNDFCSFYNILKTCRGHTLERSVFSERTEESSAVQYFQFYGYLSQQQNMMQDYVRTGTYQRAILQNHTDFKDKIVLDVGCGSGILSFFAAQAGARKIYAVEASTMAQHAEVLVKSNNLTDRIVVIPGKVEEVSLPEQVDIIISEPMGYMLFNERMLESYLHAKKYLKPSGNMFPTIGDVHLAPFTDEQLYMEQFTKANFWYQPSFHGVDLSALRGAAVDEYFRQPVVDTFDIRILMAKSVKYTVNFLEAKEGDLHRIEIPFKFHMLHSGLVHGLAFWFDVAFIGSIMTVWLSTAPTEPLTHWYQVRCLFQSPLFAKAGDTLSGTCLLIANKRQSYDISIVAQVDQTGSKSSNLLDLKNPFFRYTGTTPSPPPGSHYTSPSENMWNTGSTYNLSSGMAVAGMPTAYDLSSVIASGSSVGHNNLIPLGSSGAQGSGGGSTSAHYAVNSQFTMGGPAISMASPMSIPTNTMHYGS

Row | SMILES | IC50 [1] [µM] | IC50 [2] [µM]
1 | CNCC(O)COc1cccc(-c2nc(N(C)c3cnc(C(F)(F)F)nc3)cc(N(C)C3CCOCC3)n2)c1 (stereo not drawn) [Example 587-1a] | 0.1 to 1 | 10 to 20
2 | CNCC(O)COc1cccc(-c2nc(N(C)c3cnc(C)nc3)cc(N(C)C3CCOCC3)n2)c1 (stereo not drawn) [Example 588-1a] | 0.1 to 1 | 10 to 20
3 | CNCC(O)COc1cccc(-c2nc(-c3c[nH]cn3)cc(N(C)C3CCOCC3)n2)c1 (stereo not drawn) [Example 589-1a] | 0.1 to 1 | 10 to 20
4 | CNCC(O)COc1cccc(-c2nc(N[C@H]3C[C@H](O)C3)cc(N(C)C3CCOCC3)n2)c1 (stereo partly drawn) [Example 590-1a] | 0.1 to 1 | 10 to 20
5 | CNCC(O)COc1cccc(-c2nc(N3CCC(O)(CCO)CC3)cc(N(C)C3CCOCC3)n2)c1 (stereo not drawn) [Example 591-1a] | 0.1 to 1 | 10 to 20
6 | CNCC(O)COc1cccc(-c2nc(C(=O)N(C)CC3CCOCC3)cc(N(C)C3CCOCC3)n2)c1 (stereo not drawn) [Example 592-1a] | 0.1 to 1 | 10 to 20
7 | CNCC(O)COc1cccc(-c2nc(C(=O)N(C)C)cc(N(C)C3CCOCC3)n2)c1 (stereo not drawn) [Example 593-1a] | 0.1 to 1 | 10 to 20
8 | CNCC(O)COc1cccc(-c2nc(N3CCN(CC(F)(F)F)[C@@H](C)C3)cc(N(C)C3CCOCC3)n2)c1 (stereo partly drawn) [Example 594-1a] | 0.1 to 1 | 10 to 20
9 | CNCC(O)COc1cccc(-c2nc(N3CCN(CC(F)F)[C@@H](C)C3)cc(N(C)C3CCOCC3)n2)c1 (stereo partly drawn) [Example 595-1a] | 0.1 to 1 | 10 to 20
10 | CNCC(O)COc1cccc(-c2nc(N3CCN(CCF)CC3)cc(N(C)C3CCOCC3)n2)c1 (stereo not drawn) [Example 596-1a] | 0.1 to 1 | 10 to 20
11 | CNCC(O)COc1cccc(-c2nc(Nc3c(C)noc3C)cc(N(C)C3CCOCC3)n2)c1 (stereo not drawn) [Example 597-1a] | 0.1 to 1 | 10 to 20
12 | CNCC(O)COc1cc(-c2nc(N(C)C3CCOCC3)c(C)c(-n3cccn3)n2)cc(-n2cccn2)c1 (stereo not drawn) [Example 598-1a] | 0.1 to 1 | 10 to 20
13 | CNCC(O)COc1cccc(-c2nc(N[C@H]3C[C@@H](O)C3)cc(N(C)C3CCOCC3)n2)c1 (stereo partly drawn) [Example 599-1a] | 0.1 to 1 | 10 to 20
14 | CNCC(O)COc1cccc(-c2nc(N[C@@H]3CC[C@@H](O)C3)cc(N(C)C3CCOCC3)n2)c1 (stereo partly drawn) [Example 600-1a] | 0.1 to 1 | 10 to 20
15 | CNCC(O)COc1cccc(-c2nc(N3CCOCC3)cc(N(C3CCOCC3)C3CC3)n2)c1 (stereo not drawn) [Example 601-1a] | 0.1 to 1 | 10 to 20
16 | CNCC(O)COc1cccc(-c2nc(C(=O)N(C)C3CCOCC3)cc(N(C)C3CCOCC3)n2)c1 (stereo not drawn) [Example 602-1a] | 0.1 to 1 | 10 to 20
17 | CNCC(O)COc1cccc(-c2nc(-c3nc[nH]c3C)cc(N(C)C3CCOCC3)n2)c1 (stereo not drawn) [Example 603-1a] | 1 to 3 | 10 to 20
18 | CNCC(O)COc1cccc(-c2nc(C(=O)N3CCOCC3)cc(N(C)C3CCOCC3)n2)c1 (stereo not drawn) [Example 604-1a] | 1 to 3 | 10 to 20
19 | CNCC(O)COc1cccc(-c2nc(NC3CCOCC3)cc(N(C3CCOCC3)C3CC3)n2)c1 (stereo not drawn) [Example 605-1a] | 1 to 3 | 10 to 20
20 | CCN(c1nc(-c2cccc(OCC(O)CNC)c2)nc(NC2CCOCC2)c1C)C1CCOCC1 (stereo not drawn) [Example 606-1a] | 1 to 3 | 10 to 20
21 | CNCC(O)COc1cccc(-c2nc(NC3CCOCC3)c(C)c(N(C3CCOCC3)C3CC3)n2)c1 (stereo not drawn) [Example 607-1a] | 3 to 10 | 10 to 20
22 | CNCC(O)COc1cc(Cl)cc(-c2nc(C(=O)O)cc(N(C)C3CCOCC3)n2)c1 (stereo not drawn) [Example 608-1a] | 3 to 10 | 10 to 20
23 | CNCC(O)COc1cc(Cl)cc(-c2nc(-c3c[nH]c4ccccc34)c(C)c(N(C)C3CCOCC3)n2)c1 (stereo not drawn) [Example 625-1a] | 0.1 to 1 | 10 to 20

Row | SMILES | IC50 [1] [µM] | IC50 [2] [µM]
24 | CNCC(O)COc1cccc(-c2nc(NCC(F)(F)F)cc(-c3cncnc3)n2)c1 (stereo not drawn) [Example 626-1a] | 1 to 3 | ≥ 20
25 | CNCC(O)COc1cccc(-c2nc(NCC(F)(F)F)cc(-c3ccc(S(C)(=O)=O)cc3)n2)c1 (stereo not drawn) [Example 627-1a] | 0.1 to 1 | ≥ 20
26 | CNCC(O)COc1cccc(-c2nc(NCCOC)cc(-c3ccc4c(c3)OCCO4)n2)c1 (stereo not drawn) [Example 628-1a] | 0.1 to 1 | ≥ 20
27 | CNCC(O)COc1cccc(-c2nc(-c3cccc(C#N)c3)cc(N(CCOC)CCOC)n2)c1 (stereo not drawn) [Example 629-1a] | 0.1 to 1 | ≥ 20
28 | CNCC(O)COc1cccc(-c2nc(NCCOC)cc(-c3ccc(OC)c(OC)c3)n2)c1 (stereo not drawn) [Example 630-1a] | 0.1 to 1 | ≥ 20
29 | CNCC(O)COc1cccc(-c2nc(-c3cnn(CC(C)C)c3)cc(N(CCOC)CCOC)n2)c1 (stereo not drawn) [Example 631-1a] | 1 to 3 | ≥ 20
30 | CNCC(O)COc1cccc(-c2nc(NCCCN3CCCC3=O)cc(-c3cnn(CC(C)C)c3)n2)c1 (stereo not drawn) [Example 635-1a] | 1 to 3 | ≥ 20
31 | CNCC(O)COc1cccc(-c2nc(NCCOC)cc(-c3ccc(C(F)(F)F)nc3)n2)c1 (stereo not drawn) [Example 636-1a] | 0.1 to 1 | ≥ 20
32 | CNCC(O)COc1cccc(-c2nc(NCCOC)cc(-c3ccc(S(C)(=O)=O)cc3)n2)c1 (stereo not drawn) [Example 637-1a] | 0.1 to 1 | ≥ 20
33 | CNCC(O)COc1cccc(-c2nc(NCCOC)cc(-c3ccnc(OC)c3)n2)c1 (stereo not drawn) [Example 638-1a] | 0.1 to 1 | ≥ 20
34 | CNCC(O)COc1cccc(-c2nc(-c3cccc4ncccc34)cc(N(CCOC)CCOC)n2)c1 (stereo not drawn) [Example 639-1a] | 0.1 to 1 | ≥ 20
35 | CNCC(O)COc1cccc(-c2nc(-c3cc4ccccc4o3)cc(N(CCOC)CCOC)n2)c1 (stereo not drawn) [Example 640-1a] | 0.1 to 1 | ≥ 20
36 | CCN1CCN(c2nc(-c3cccc(OCC(O)CNC)c3)nc(NC3CCOCC3)c2C)CC1 (stereo not drawn) [Example 641-1a] | 0.1 to 1 | ≥ 20
37 | CNCC(O)COc1cccc(-c2nc(NC3CCOCC3)c(C)c(N3CCN(C(C)=O)CC3)n2)c1 (stereo not drawn) [Example 643-1a] | 1 to 3 | ≥ 20
38 | CNCC(O)COc1cccc(-c2nc(NC3CCOCC3)c(C)c(N3CCNC(C)C3)n2)c1 (stereo not drawn) [Example 645-1a] | 1 to 3 | ≥ 20
39 | CNCC(O)COc1cccc(-c2nc(NC3CCOCC3)cc(C3CC3)n2)c1 (stereo not drawn) [Example 646-1a] | 0.1 to 1 | ≥ 20
40 | CNCC(O)COc1cccc(-c2nc(NCCCN3CCCC3=O)cc(-c3cccc4ncccc34)n2)c1 (stereo not drawn) [Example 648-1a] | 0.1 to 1 | ≥ 20
41 | CNCC(O)COc1cccc(-c2nc(NCCCN3CCCC3=O)cc(-c3cc4ccccc4o3)n2)c1 (stereo not drawn) [Example 649-1a] | 0.1 to 1 | ≥ 20
42 | CNCC(O)COc1cccc(-c2nc(C3CCCC3)cc(C(CCOC)CCOC)n2)c1 (stereo not drawn) [Example 650-1a] | 0.1 to 1 | ≥ 20
43 | CNCC(O)COc1cccc(-c2nc(C3=CCCC3)cc(C(CCOC)CCOC)n2)c1 (stereo not drawn) [Example 651-1a] | 0.1 to 1 | ≥ 20
44 | CNCC(O)COc1cccc(-c2nc(NC3CCOCC3)cc(-c3ccnc(OC)c3)n2)c1 (stereo not drawn) [Example 653-1a] | 1 to 3 | ≥ 20
45 | CNCC(O)COc1cccc(-c2nc(NC3CCOCC3)cc(-c3ccc(C(F)(F)F)nc3)n2)c1 (stereo not drawn) [Example 654-1a] | 0.1 to 1 | ≥ 20

Source: US10633389B2, “CARM1 inhibitors and uses thereof” (Epizyme, Inc., priority 2013, dated 2020)
